Results reported in the kinase profiling compilation of Christmann-Franck et al. (2016).

Key:
Assay in all cases: KINOMEscan competition binding
Settings in all cases: compound 1.0 µM
PLK2 (human) = PLK2 (human) (UniProt Q9NYY3)
[1] = tested on: EGFR (human), P00533 [G719S]
CASK (human) = CASK (human) (UniProt O14936)
CAMK2B (human) = CAMK2B (human) (UniProt Q13554)
PHKG2 (human) = PHKG2 (human) (UniProt P15735)
PLK4 (human) = PLK4 (human) (UniProt O00444)
PRKG1 (human) = PRKG1 (human) (UniProt Q13976)
NEK1 (human) = NEK1 (human) (UniProt Q96PY6)
PKN2 (human) = PKN2 (human) (UniProt Q16513)
PIK3CG (human) = PIK3CG (human) (UniProt P48736)
IKBKE (human) = IKBKE (human) (UniProt Q14164)
TBK1 (human) = TBK1 (human) (UniProt Q9UHD2)
[2] = tested on: KIT (human), P10721 [A829P]
MYLK (human) = MYLK (human) (UniProt Q15746)
MAPK13 (human) = MAPK13 (human) (UniProt O15264)
SRPK3 (human) = SRPK3 (human) (UniProt Q9UPE1)
[3] = biological target: JAK3 JH1 catalytic (human) (UniProt P52333)
SRMS (human) = SRMS (human) (UniProt Q9H3Y6)
PKN3 (M.tuberculosis) = PKN3 (M.tuberculosis) (UniProt Q6P5Z2)
SBK1 (human) = SBK1 (human) (UniProt Q52WX2)
RPS6KA2 KD1 (human) = RPS6KA2 KD1 (human) (UniProt Q15349)
BRSK2 (human) = BRSK2 (human) (UniProt Q8IWQ3)
MET (human) = MET (human) (UniProt P08581)
IRAK3 (human) = IRAK3 (human) (UniProt Q9Y616)
CDK9 (human) = CDK9 (human) (UniProt P50750)
GAK (human) = GAK (human) (UniProt O14976)
[4] = tested on: FLT3 (human), P36888 [D835Y]
LIMK2 (human) = LIMK2 (human) (UniProt P53671)
PLK1 (human) = PLK1 (human) (UniProt P53350)
NUAK1 (human) = NUAK1 (human) (UniProt O60285)
MAPK9 (human) = MAPK9 (human) (UniProt P45984)
SRPK1 (human) = SRPK1 (human) (UniProt Q96SB4)
MAP3K10 (human) = MAP3K10 (human) (UniProt Q02779)
ABL2 (human) = ABL2 (human) (UniProt P42684)
TRPM6 (human) = TRPM6 (human) (UniProt Q9BX84)
[5] = tested on: RET (human), P07949 [V804L]
LCK (human) = LCK (human) (UniProt P06239)
PRKG2 (human) = PRKG2 (human) (UniProt Q13237)
ZAP70 (human) = ZAP70 (human) (UniProt P43403)
[6] = biological target: JAK1 JH1 catalytic (human) (UniProt P23458)
MAP3K9 (human) = MAP3K9 (human) (UniProt P80192)
STK11 (human) = STK11 (human) (UniProt Q15831)
HIPK1 (human) = HIPK1 (human) (UniProt Q86Z02)

Sequence of ZAP70 (human) (P43403 whole entry, looked up): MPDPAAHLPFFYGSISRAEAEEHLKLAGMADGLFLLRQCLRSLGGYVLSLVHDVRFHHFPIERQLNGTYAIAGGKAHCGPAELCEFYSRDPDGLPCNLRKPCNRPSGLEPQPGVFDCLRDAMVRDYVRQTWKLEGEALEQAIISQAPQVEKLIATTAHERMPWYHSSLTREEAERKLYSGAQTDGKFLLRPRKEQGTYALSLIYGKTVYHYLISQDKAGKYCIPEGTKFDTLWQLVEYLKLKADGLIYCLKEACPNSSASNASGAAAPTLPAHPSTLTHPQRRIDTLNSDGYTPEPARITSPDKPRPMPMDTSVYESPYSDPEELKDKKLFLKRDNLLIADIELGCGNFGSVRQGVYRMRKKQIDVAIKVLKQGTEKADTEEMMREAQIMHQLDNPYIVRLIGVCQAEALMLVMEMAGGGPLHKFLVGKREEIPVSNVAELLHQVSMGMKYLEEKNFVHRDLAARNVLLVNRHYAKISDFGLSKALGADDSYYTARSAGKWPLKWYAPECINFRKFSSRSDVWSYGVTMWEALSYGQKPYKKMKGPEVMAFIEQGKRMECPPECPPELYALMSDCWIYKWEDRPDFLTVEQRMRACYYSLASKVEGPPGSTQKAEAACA
Sequence of SRPK1 (human) (Q96SB4 whole entry, looked up): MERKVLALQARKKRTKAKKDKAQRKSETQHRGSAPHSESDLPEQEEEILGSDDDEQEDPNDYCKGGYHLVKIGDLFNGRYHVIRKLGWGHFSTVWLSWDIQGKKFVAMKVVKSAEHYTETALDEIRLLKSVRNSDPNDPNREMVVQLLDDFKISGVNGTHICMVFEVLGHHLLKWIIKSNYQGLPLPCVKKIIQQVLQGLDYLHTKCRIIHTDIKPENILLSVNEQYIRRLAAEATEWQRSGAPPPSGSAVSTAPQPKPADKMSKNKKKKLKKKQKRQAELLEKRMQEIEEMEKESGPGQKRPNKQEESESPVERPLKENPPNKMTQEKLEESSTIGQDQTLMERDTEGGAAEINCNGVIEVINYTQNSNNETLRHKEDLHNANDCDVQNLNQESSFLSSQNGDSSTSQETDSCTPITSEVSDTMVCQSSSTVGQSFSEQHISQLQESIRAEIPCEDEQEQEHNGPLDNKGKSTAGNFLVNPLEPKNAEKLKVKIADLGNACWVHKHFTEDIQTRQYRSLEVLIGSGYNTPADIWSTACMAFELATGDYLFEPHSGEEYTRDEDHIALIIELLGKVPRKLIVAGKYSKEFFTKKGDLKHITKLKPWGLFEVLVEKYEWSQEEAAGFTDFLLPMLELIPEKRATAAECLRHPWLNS
Sequence of MAP3K10 (human) (Q02779 whole entry, looked up): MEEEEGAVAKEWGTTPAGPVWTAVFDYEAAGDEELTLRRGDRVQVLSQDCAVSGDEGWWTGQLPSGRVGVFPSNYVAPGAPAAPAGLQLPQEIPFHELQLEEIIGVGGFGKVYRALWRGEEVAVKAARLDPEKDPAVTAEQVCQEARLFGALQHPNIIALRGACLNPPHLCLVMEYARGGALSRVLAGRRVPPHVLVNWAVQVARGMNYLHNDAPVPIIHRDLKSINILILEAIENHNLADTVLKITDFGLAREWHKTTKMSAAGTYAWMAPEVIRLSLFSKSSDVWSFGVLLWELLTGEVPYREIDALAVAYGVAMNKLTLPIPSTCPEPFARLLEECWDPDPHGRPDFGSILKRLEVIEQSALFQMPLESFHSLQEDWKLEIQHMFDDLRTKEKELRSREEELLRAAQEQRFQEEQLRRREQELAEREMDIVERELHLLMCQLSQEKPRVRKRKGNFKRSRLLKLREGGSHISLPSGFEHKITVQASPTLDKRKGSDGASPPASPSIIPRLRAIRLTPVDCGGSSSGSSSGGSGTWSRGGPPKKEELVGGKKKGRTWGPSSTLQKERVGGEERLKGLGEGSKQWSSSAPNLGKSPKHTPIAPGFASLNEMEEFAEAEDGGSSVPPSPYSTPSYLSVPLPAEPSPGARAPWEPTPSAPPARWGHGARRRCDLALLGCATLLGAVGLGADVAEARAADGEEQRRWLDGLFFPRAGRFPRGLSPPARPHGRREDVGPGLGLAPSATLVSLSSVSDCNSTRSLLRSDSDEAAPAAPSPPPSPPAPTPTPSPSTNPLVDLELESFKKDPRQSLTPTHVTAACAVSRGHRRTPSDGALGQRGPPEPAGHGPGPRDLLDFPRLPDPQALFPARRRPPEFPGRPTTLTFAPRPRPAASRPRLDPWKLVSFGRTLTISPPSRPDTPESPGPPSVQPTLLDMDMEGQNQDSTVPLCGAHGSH
Sequence of MYLK (human) (Q15746 whole entry, looked up): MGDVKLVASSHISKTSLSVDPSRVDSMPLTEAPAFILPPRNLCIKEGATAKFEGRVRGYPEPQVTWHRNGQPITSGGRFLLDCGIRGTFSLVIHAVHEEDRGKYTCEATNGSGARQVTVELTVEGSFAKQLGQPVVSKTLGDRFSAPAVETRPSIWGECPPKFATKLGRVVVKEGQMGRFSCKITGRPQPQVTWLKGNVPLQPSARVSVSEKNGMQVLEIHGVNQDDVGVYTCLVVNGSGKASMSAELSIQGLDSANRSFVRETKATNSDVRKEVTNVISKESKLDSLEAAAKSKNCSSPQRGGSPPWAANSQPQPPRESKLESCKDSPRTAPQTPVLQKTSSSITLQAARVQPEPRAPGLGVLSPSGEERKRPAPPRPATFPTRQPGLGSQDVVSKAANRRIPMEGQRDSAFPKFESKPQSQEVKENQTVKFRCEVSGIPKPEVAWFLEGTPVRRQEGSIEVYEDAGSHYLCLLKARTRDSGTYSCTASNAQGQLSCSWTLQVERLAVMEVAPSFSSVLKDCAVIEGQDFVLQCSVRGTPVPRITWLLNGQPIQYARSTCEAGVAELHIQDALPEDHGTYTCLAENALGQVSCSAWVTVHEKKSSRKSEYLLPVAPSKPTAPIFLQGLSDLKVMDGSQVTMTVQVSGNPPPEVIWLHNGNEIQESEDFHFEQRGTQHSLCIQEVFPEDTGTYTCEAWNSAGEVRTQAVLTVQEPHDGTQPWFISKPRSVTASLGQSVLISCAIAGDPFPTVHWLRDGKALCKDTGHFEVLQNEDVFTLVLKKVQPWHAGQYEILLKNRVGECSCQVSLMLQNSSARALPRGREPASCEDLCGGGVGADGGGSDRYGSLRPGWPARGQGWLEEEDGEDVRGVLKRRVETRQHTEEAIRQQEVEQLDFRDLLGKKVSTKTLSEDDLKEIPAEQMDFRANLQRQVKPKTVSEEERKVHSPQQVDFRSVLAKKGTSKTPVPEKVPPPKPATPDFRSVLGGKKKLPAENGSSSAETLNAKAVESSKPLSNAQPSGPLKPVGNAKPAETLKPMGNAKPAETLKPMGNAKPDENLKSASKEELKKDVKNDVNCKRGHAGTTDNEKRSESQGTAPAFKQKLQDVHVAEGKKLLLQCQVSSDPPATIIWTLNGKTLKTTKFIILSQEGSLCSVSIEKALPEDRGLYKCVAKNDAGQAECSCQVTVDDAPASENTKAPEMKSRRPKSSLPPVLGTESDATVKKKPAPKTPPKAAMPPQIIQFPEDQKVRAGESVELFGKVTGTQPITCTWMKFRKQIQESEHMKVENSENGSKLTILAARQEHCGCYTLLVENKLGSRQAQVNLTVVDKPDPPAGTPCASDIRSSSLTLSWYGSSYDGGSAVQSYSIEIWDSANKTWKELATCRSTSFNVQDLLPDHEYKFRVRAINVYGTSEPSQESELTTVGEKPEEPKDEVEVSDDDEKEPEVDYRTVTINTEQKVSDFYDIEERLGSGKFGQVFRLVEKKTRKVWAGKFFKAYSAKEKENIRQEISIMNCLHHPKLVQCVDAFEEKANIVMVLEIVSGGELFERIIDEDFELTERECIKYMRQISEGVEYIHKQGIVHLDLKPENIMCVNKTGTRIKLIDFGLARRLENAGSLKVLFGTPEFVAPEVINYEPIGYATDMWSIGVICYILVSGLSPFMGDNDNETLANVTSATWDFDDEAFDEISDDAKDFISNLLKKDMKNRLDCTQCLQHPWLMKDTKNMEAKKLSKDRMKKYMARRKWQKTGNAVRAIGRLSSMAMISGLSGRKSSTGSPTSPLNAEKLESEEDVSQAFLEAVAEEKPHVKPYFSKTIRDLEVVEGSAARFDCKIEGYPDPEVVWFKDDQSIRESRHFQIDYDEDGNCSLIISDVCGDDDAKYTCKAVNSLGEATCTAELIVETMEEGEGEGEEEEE
Sequence of CAMK2B (human) (Q13554 whole entry, looked up): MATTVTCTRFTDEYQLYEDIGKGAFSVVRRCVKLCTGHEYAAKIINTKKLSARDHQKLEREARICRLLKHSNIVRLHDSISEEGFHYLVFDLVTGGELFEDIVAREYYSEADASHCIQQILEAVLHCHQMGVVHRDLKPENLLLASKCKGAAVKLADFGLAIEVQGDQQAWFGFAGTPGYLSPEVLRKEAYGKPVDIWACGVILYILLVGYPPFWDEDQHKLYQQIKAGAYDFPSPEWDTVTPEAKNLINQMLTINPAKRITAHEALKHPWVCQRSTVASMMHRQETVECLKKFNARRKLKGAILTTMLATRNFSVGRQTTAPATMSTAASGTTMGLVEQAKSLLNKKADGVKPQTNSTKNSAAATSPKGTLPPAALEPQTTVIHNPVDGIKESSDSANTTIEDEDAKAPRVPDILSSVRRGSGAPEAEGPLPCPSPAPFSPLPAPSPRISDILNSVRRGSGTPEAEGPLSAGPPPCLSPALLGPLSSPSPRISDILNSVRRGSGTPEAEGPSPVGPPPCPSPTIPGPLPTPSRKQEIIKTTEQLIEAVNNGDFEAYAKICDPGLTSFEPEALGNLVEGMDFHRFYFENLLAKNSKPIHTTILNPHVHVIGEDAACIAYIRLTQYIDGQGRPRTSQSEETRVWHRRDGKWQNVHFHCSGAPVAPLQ

`COCCNCCCn1c(C(=O)CF)c(-c2ccc(C)cc2)c2c(N)ncnc21` gave a kinase still bound, per cent of control (PLK2 (human)) of 96%, a kinase still bound, per cent of control [1] of 90% and a kinase still bound, per cent of control (CASK (human)) of 62%. For the same compound, the kinase still bound, per cent of control (CAMK2B (human)) was 97%, the kinase still bound, per cent of control (PHKG2 (human)) was 100% and the kinase still bound, per cent of control (PLK4 (human)) was 100%. The kinase still bound, per cent of control (PRKG1 (human)) was 100%, the kinase still bound, per cent of control (NEK1 (human)) was 100% and the kinase still bound, per cent of control (PKN2 (human)) was 94%. The kinase still bound, per cent of control (PIK3CG (human)) was 100%, the kinase still bound, per cent of control (IKBKE (human)) was 100% and the kinase still bound, per cent of control (TBK1 (human)) was 100%. It also gave a kinase still bound, per cent of control [2] of 85%, a kinase still bound, per cent of control (MYLK (human)) of 100% and a kinase still bound, per cent of control (MAPK13 (human)) of 89%. It also gave a kinase still bound, per cent of control (SRPK3 (human)) of 78%, a kinase still bound, per cent of control [3] of 100% and a kinase still bound, per cent of control (SRMS (human)) of 99%. It also gave a kinase still bound, per cent of control (PKN3 (M.tuberculosis)) of 100%, a kinase still bound, per cent of control (SBK1 (human)) of 98% and a kinase still bound, per cent of control (RPS6KA2 KD1 (human)) of 83%. For the same compound, the kinase still bound, per cent of control (BRSK2 (human)) was 100%, the kinase still bound, per cent of control (MET (human)) was 97% and the kinase still bound, per cent of control (IRAK3 (human)) was 86%. The kinase still bound, per cent of control (CDK9 (human)) was 100%, the kinase still bound, per cent of control (GAK (human)) was 100% and the kinase still bound, per cent of control [4] was 100%. For the same compound, the kinase still bound, per cent of control (LIMK2 (human)) was 100%, the kinase still bound, per cent of control (PLK1 (human)) was 100% and the kinase still bound, per cent of control (NUAK1 (human)) was 98%. For the same compound, the kinase still bound, per cent of control (MAPK9 (human)) was 94%, the kinase still bound, per cent of control (SRPK1 (human)) was 100% and the kinase still bound, per cent of control (MAP3K10 (human)) was 77%. It also gave a kinase still bound, per cent of control (ABL2 (human)) of 100%, a kinase still bound, per cent of control (TRPM6 (human)) of 81% and a kinase still bound, per cent of control [5] of 100%. It also gave a kinase still bound, per cent of control (LCK (human)) of 65%, a kinase still bound, per cent of control (PRKG2 (human)) of 98% and a kinase still bound, per cent of control (ZAP70 (human)) of 85%. For the same compound, the kinase still bound, per cent of control [6] was 100%, the kinase still bound, per cent of control (MAP3K9 (human)) was 100% and the kinase still bound, per cent of control (STK11 (human)) was 98%. For the same compound, the kinase still bound, per cent of control (HIPK1 (human)) was 96%.
